≈ marks a conversion by molar mass, not a printed value. Square brackets hold non-standard residues; d marks the D form. Ends that are not written are not given here. Peptide text beside a SMILES is read from it. hPhe = N[C@@H](CCc1ccccc1)C(=O)O; αMeF = C[C@](N)(Cc1ccccc1)C(=O)O
Key:
[1] = Cytotoxicity assay: hemolysis of erythrocytes; type: cell-based; settings: 50% hemolysis, human erythrocytes, 1 h at 37° C., pH 7.4; read-out: LC50 Erythrocytes Human
Experimental: Hemolytic experiments were performed using human erythrocytes obtained from healthy adult donors (Etablissement Français du sang, Paris, France) according to a previously described protocol (Abbassi et al., “Isolation, characterization and molecular cloning of new temporins from the skin of the North African ranid Pelophylax saharica”, Peptides, 2008, 29: 1526-33).
Briefly, synthetic peptides (1-200 μM, final concentrations) were incubated (100 μL, final volume) with erythrocytes (2×10^7 cells) in Dulbecco's phosphate-buffered saline (pH 7.4) for 1 h at 37° C. After centrifugation (12,000×g, 15 s), the absorbance of the supernatant was measured at 450 nm.

[2] = system: Klebsiella pneumoniae ATCC 13883; test: MIC, growth inhibition in broth medium; type: cell-based; settings: Gram-negative, 18-24 hrs at 37° C.
Excerpt: (§1) The following strains were used: • Gram-negative bacteria: Escherichia coli ATCC 25922, Pseudomonas aeruginosa ATCC 27853, Acinetobacter baumannii ATCC 19606, Klebsiella pneumoniae ATCC 13883, • Gram-positive bacteria: Staphylococcus aureus ATCC 25923, multi-drug resistant Staphylococcus aureus ATCC BAA-44, Streptococcus pyogenes ATCC 19615, Listeria ivanovii Li4pVS2, Enterococcus faecalis ATCC 29212,
For each strain, a standard inoculum of approximately 10^6 bacteria/mL (exponential growth phase) was prepared. To this end, a colony isolated on LB agar previously inoculated with one of the strains was cultured in 4 ml of LB broth medium, except for S. pyogenes and L. ivanovii which were grown in BHI (Brain Heart Infusion) from a colony isolated on BHI agar. Liquid cultures were then incubated for 2 to 3 hrs at 37° C. with shaking for the bacteria to reach exponential growth phase. After centrifugation, most of the bacterial suspensions were diluted in Mueller-Hinton (MH) broth medium to an OD630nm of 0.01, which corresponds to a concentration of approximately 10^6 cfu/mL (cfu: colony forming unit). […]
The minimum inhibitory concentration (MIC) of each peptide was determined by a test of growth inhibition in broth medium. […] Bacterial growth was determined by measuring OD at 630 nm (turbidity) on a plate reader. […]

[3] = system: Gram-positive and Gram-negative bacteria; settings: cited from earlier work
[4] = system: Staphylococcus aureus; type: cell-based; settings: Gram-positive, 18-24 hrs at 37° C.
Excerpt: as §1
(§2) For each strain, a standard inoculum of approximately 10^6 bacteria/mL (exponential growth phase) was prepared. To this end, a colony isolated on LB agar previously inoculated with one of the strains was cultured in 4 ml of LB broth medium, except for S. pyogenes and L. ivanovii which were grown in BHI (Brain Heart Infusion) from a colony isolated on BHI agar. Liquid cultures were then incubated for 2 to 3 hrs at 37° C. with shaking for the bacteria to reach exponential growth phase. After centrifugation, most of the bacterial suspensions were diluted in Mueller-Hinton (MH) broth medium to an OD630nm of 0.01, which corresponds to a concentration of approximately 10^6 cfu/mL (cfu: colony forming unit). A different medium was used for E. faecalis (LB) and for S. pyogenes and L. ivanovii (BHI).
(§3) The minimum inhibitory concentration (MIC) of each peptide was determined by a test of growth inhibition in broth medium. […] The test was performed in a sterile 96-well microtiter plate. A series of increasing concentrations of peptide (2 to 400 μM) was first prepared in sterile MilliQ water. 50 μL of each peptide concentration were mixed into the well with 50 μL of bacterial suspension (10^6 cfu/ml). The microtiter plate was then incubated for 18-24 hrs at 37° C. with shaking. Bacterial growth was determined by measuring OD at 630 nm (turbidity) on a plate reader. Tests were carried out in triplicate for each peptide concentration and at least three independent experiments were performed to determine the MIC value.
(§4) The growth inhibition negative control was obtained by replacing the solution containing the peptide with 50 μL of sterile MilliQ water. The positive control allowing the complete inhibition of bacterial growth was obtained by replacing the solution containing the peptide with 50 μL, of 0.7% formaldehyde.

[5] = system: Streptococcus pyogenes ATCC 19615; type: cell-based; settings: Gram-positive, BHI, 18-24 hrs at 37° C.
Excerpt: as §1, §2, §3, §4

[6] = system: Enterococcus faecalis ATCC 29212; type: cell-based; settings: Gram-positive, LB, 18-24 hrs at 37° C.
Excerpt: as §1, §2, §3, §4

[7] = system: Pseudomonas aeruginosa ATCC 27853; type: cell-based; settings: Gram-negative, 18-24 hrs at 37° C.
Excerpt: as §1, §2, §3, §4

[8] = system: Acinetobacter baumannii ATCC 19606; type: cell-based; settings: Gram-negative, 18-24 hrs at 37° C.
Excerpt: as §1, §2, §3, §4

[9] = system: Escherichia coli ATCC 25922; type: cell-based; settings: Gram-negative, 18-24 hrs at 37° C.
Excerpt: as §1, §2, §3, §4

[10] = system: Listeria ivanovii Li4pVS2; type: cell-based; settings: Gram-positive, BHI, 18-24 hrs at 37° C.
Excerpt: as §1, §2, §3, §4

Compound	CC50 at 1 h [1]	MIC KP [2]	antimicrobial activity [3]	HC50 at 1 h [1]	MIC SA [4]	MIC SP [5]	MIC EF [6]	MIC PA [7]	MIC AB [8]	MIC EC [9]	MIC LI [10]
N=C(N)NCCC[C@H](NC(=O)[C@H](CCCNC(=N)N)NC(=O)[C@H](Cc1ccccc1)NC(=O)[C@H](Cc1ccccc1)NC(=O)[C@H](CCc1ccccc1)NC(=O)[C@@H](N)Cc1ccccc1)C(=O)N[C@@H](Cc1ccccc1)C(=O)N[C@@H](Cc1ccccc1)C(N)=O [compound 51] (H-F[hPhe]FFRRFF-NH2; N-terminus assumed)	159 µM	25 µM (≈ 30.7 µg/mL)									
FF(α-MeF)LSRIFamide (FF[αMeF]LSRIF-NH2; N-terminus assumed; SMILES CC[C@H](C)[C@H](NC(=O)[C@H](CCCNC(=N)N)NC(=O)[C@H](CO)NC(=O)[C@H](CC(C)C)NC(=O)[C@](C)(Cc1ccccc1)NC(=O)[C@H](Cc1ccccc1)NC(=O)[C@@H](N)Cc1ccccc1)C(=O)N[C@@H](Cc1ccccc1)C(N)=O) [SEQ ID No 7, excluded known SHf analog]			strong activity against Gram-positive and Gram-negative bacteria, including Klebsiella pneumoniae								
FRFRFRFF-NH2 [compound 55]				> 200 µM	3 µM	12.5 µM	>100 µM				
FRFFRRFF-NH2 [compound 49]				> 200 µM		25 µM	>100 µM	6.25 µM			
RFFFRRFF-NH2 [compound 72]				> 200 µM	6.25 µM	25 µM	>100 µM	12.5 µM	100 µM		
N=C(N)NCCC[C@H](NC(=O)[C@H](CCCNC(=N)N)NC(=O)[C@H](Cc1ccccc1)NC(=O)[C@H](CCc1ccccc1)NC(=O)[C@H](Cc1ccccc1)NC(=O)[C@@H](N)Cc1ccccc1)C(=O)N[C@@H](Cc1ccccc1)C(=O)N[C@@H](Cc1ccccc1)C(N)=O [compound 53]				140 µM	3 µM (≈ 3.68 µg/mL)	6.25 µM (≈ 7.67 µg/mL)	50 µM (≈ 61.3 µg/mL)	12.5 µM (≈ 15.3 µg/mL)	12.5 µM (≈ 15.3 µg/mL)	12.5 µM (≈ 15.3 µg/mL)	
N=C(N)NCCC[C@H](NC(=O)[C@H](CCCNC(=N)N)NC(=O)[C@H](Cc1ccccc1)NC(=O)[C@H](CCCNC(=N)N)NC(=O)[C@H](Cc1ccccc1)NC(=O)[C@@H](N)Cc1ccccc1)C(=O)N[C@@H](Cc1ccccc1)C(=O)N[C@@H](Cc1ccccc1)C(N)=O [compound 50]				> 200 µM	6.25 µM (≈ 7.63 µg/mL)	6.25 µM (≈ 7.63 µg/mL)	100 µM (≈ 122 µg/mL)	12.5 µM (≈ 15.3 µg/mL)	100 µM (≈ 122 µg/mL)		
FFFFSRFF-NH2 [compound 34]				> 200 µM	12.5 µM	6.25 µM	100 µM	>100 µM	>100 µM	>100 µM	25 µM
FFFRRRFF-NH2 [compound 38]				> 200 µM		12.5 µM	>100 µM	25 µM	100 µM	25 µM	
FRFRFRFR-NH2 [compound 56]				> 200 µM		6.25 µM	30 µM		25 µM	3 µM	
N=C(N)NCCC[C@H](NC(=O)[C@H](CCCNC(=N)N)NC(=O)[C@H](Cc1ccccc1)NC(=O)[C@H](Cc1ccccc1)NC(=O)[C@H](Cc1ccccc1)NC(=O)[C@@H](N)Cc1ccccc1)C(=O)N[C@@H](Cc1ccccc1)C(=O)N[C@@H](Cc1ccccc1)C(N)=O [compound 39]				> 200 µM	6.25 µM (≈ 7.58 µg/mL)	3 µM (≈ 3.64 µg/mL)	50 µM (≈ 60.6 µg/mL)	12.5 µM (≈ 15.2 µg/mL)	25 µM (≈ 30.3 µg/mL)	12.5 µM (≈ 15.2 µg/mL)	12.5 µM (≈ 15.2 µg/mL)
CC[C@H](C)[C@H](NC(=O)[C@H](CCCNC(=N)N)NC(=O)[C@H](CCCNC(=N)N)NC(=O)[C@H](CC(C)C)NC(=O)[C@H](CCc1ccccc1)NC(=O)[C@H](Cc1ccccc1)NC(=O)[C@@H](N)Cc1ccccc1)C(=O)N[C@@H](Cc1ccccc1)C(N)=O [compound 19]				170 µM	6.25 µM (≈ 7.24 µg/mL)	12.5 µM (≈ 14.5 µg/mL)		25 µM (≈ 29 µg/mL)	25 µM (≈ 29 µg/mL)	12.5 µM (≈ 14.5 µg/mL)	
CC[C@H](C)[C@H](NC(=O)[C@H](CCCNC(=N)N)NC(=O)[C@H](CO)NC(=O)[C@H](CC(C)C)NC(=O)[C@H](Cc1ccccc1)NC(=O)[C@H](Cc1ccccc1)NC(=O)[C@@H](N)Cc1ccccc1)C(=O)N[C@@H](Cc1ccccc1)C(N)=O [compound 2]				> 200 µM	25 µM (≈ 26.9 µg/mL)	25 µM (≈ 26.9 µg/mL)	100 µM (≈ 108 µg/mL)	>100 µM	>100 µM	50 µM (≈ 53.8 µg/mL)	50 µM (≈ 53.8 µg/mL)
FFFFKRFF-NH2 [compound 42]				> 200 µM	6.25 µM	12.5 µM	>100 µM	12.5 µM			
FFRRFFFF-NH2 [compound 41]				> 200 µM	6.25 µM	6.25 µM	50 µM	12.5 µM	12.5 µM	12.5 µM	
FFFFRKFF-NH2 [compound 43]				> 200 µM		12.5 µM	100 µM	12.5 µM	12.5 µM		
